The text below walks through data of patent US11339130B1 (Blade Therapeutics, Inc., priority 2016, dated 2022).

Assay [1] deals with Calpain activity in SH-SY5Y cells (SBDP-150). Nature of the assay: SH-SY5Y Spectrin western blot assay (SBDP-150 breakdown product, A23187-induced). Format: cell-based. The following applies: Homo sapiens, SH-SY5Y cells, read-out: SH-SY5Y Spectrin IC50. For orientation: Immunoblotting shows a protein as a band on a membrane.
In assay [2] the target is T1, Human Calpain 9/NS1 (Homo sapiens, UniProt O14815).
T1 sequence (O14815 1-690): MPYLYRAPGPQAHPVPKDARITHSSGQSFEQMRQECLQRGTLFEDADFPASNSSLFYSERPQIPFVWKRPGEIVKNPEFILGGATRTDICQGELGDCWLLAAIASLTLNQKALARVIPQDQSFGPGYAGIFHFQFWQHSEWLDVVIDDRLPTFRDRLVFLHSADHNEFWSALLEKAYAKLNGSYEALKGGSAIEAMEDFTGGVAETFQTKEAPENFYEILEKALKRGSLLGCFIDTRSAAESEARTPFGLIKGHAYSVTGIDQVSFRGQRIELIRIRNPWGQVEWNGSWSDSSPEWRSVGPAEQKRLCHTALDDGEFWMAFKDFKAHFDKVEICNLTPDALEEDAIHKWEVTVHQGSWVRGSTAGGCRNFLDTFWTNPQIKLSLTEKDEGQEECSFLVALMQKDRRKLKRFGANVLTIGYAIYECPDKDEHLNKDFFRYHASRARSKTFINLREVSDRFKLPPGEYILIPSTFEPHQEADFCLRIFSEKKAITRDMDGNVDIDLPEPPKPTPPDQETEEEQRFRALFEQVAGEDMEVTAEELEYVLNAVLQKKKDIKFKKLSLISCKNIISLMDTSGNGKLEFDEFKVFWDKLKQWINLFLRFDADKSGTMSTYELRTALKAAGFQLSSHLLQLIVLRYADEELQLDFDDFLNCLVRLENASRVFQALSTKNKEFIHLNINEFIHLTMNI
T1 sequence (P04632 1-268 partner): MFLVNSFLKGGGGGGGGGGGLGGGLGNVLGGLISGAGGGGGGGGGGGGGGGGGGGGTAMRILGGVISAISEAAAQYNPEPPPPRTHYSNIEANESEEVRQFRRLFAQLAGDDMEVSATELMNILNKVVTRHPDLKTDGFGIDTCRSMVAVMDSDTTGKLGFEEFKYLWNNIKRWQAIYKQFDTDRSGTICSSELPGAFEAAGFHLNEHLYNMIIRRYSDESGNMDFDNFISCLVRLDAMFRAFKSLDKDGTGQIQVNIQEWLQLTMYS
The assay can be described thus: Calpain inhibition continuous fluorescence (FRET) assay, Human Calpain 9/NS1. Format: biochemical. The following applies: read-out: Human Calpain 9/NS1 IC50. The essentials:
(§1)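 Calpain activity is measured kinetically with a quenched FRET peptide in 50 mM Tris pH 7.5, 100 mM NaCl, 1 mM DTT, with CaCl2 triggering activation. Rates over 1-5 min are plotted against log inhibitor to obtain IC50 by 4-parameter logistic fitting.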

In assay [3] the test system is Calpain activity in SH-SY5Y cells. Nature of the assay: SH-SY5Y + AMC fluorescence assay (Suc-LLVY-AMC substrate). Conditions: read-out: SH-SY5Y + AMC IC50. Format: cell-based.
Assay [4] addresses T2, Human Calpain 1/NS1 (Homo sapiens, UniProt P07384).
T2 sequence (P07384 1-714): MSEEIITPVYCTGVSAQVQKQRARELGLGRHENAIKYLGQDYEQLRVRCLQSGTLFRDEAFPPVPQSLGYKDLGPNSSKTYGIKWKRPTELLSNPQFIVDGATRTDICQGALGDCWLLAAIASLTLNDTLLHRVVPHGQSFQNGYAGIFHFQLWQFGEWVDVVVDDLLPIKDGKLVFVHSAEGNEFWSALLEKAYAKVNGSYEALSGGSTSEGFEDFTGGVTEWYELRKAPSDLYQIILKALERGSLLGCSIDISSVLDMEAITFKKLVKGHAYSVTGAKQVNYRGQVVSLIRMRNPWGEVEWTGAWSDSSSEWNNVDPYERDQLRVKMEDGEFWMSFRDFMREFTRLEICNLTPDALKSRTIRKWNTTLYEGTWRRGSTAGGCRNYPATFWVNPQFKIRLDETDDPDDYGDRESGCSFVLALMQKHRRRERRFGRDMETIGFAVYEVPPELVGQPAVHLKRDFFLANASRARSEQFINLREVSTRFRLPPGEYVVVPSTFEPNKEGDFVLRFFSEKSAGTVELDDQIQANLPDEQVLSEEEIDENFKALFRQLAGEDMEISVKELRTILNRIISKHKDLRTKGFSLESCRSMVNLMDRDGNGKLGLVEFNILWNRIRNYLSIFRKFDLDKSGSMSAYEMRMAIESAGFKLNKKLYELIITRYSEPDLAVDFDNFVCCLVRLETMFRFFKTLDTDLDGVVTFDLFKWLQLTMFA
T2 sequence (P04632 1-268 partner): T1 sequence (P04632 1-268 partner)
Nature of the assay: Calpain inhibition continuous fluorescence (FRET) assay, Human Calpain 1/NS1. Conditions: read-out: Human Calpain 1/NS1 IC50. Format: biochemical. In a few lines: as §1

The target of assay [5] is T3, Human Calpain 2/NS1 (Homo sapiens, UniProt P17655).
T3 sequence (P17655 1-700): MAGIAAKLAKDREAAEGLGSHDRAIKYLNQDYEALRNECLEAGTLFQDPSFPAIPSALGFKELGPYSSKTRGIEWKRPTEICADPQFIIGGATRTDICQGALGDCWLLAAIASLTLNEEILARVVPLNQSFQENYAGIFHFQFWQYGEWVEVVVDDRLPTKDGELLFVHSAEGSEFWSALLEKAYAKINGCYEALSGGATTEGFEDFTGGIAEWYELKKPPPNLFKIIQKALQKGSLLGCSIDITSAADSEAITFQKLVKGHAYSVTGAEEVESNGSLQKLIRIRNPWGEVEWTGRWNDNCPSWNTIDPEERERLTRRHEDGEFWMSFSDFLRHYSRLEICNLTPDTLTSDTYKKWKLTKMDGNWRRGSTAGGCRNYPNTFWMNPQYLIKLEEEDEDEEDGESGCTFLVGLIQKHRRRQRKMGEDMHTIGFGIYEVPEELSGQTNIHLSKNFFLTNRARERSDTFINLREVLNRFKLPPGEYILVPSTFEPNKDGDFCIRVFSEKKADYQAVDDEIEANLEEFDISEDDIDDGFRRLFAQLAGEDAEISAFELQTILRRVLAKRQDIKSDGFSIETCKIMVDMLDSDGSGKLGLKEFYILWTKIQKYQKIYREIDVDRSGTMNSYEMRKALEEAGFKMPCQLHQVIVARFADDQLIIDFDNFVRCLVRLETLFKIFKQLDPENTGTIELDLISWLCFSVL
T3 sequence (P04632 1-268 partner): T1 sequence (P04632 1-268 partner)
Nature of the assay: Calpain inhibition continuous fluorescence (FRET) assay, Human Calpain 2/NS1. In kind it is biochemical. Conditions: read-out: Human Calpain 2/NS1 IC50. The essentials: as §1

The mark [6] stands for this setting: A23187-induced SBDP-150, western blot.
The mark [7] stands for this setting: Column D, A23187-induced SBDP-150.

The structures appear in SMILES notation. Where two headings read alike, the source gives them in different places.

Consider `COc1cccc(-c2nn(C(F)F)cc2C(=O)NC(Cc2ccccc2)C(=O)C(N)=O)c1` (stereo not drawn) [Compound 384, N-(4-amino-3,4-dioxo-1-phenylbutan-2-yl)-1-(difluoromethyl)-3-(3-methoxyphenyl)-1H-pyrazole-4-carboxamide], for which the IC50 in assay [1] (setting [6]) is below 10 µM; in assay [2] it was below 3 µM; in assay [3], below 10 µM; in assay [4] it was below 3 µM; in assay [5], below 3 µM.
Take `NC(=O)C(=O)[C@H](Cc1ccccc1)NC(=O)c1ocnc1-c1ccccc1` [Compound 303, (S)—N-(4-amino-3,4-dioxo-1-phenylbutan-2-yl)-4-phenyloxazole-5-carboxamide]: the IC50 in assay [1] (setting [7]) is 10 to 25 µM; in assay [2] (Column C), below 3 µM; in assay [3] (Column E), below 10 µM; in assay [4] (Column A), below 3 µM; in assay [5] (Column B), below 3 µM.
For `Cc1cccc(-c2nn(C)cc2C(=O)NC(Cc2ccccc2)C(=O)C(N)=O)c1F` (stereo not drawn) [Compound 517, N-(4-amino-3,4-dioxo-1-phenylbutan-2-yl)-3-(2-fluoro-3-methylphenyl)-1-methyl-1H-pyrazole-4-carboxamide], the IC50 in assay [1] (setting [6]) is 10 to 25 µM; in assay [2], below 3 µM; in assay [3] it was 10 to 25 µM; in assay [4] it was below 3 µM; in assay [5], below 3 µM.
As to `Cn1cc(C(=O)N[C@@H](Cc2ccccc2)C(=O)CF)c(-c2ccccc2)n1` [Compound 476, (S)—N-(4-fluoro-3-oxo-1-phenylbutan-2-yl)-1-methyl-3-phenyl-1H-pyrazole-4-carboxamide], the IC50 in assay [1] (setting [6]) is 10 to 25 µM; in assay [2] it was below 3 µM; in assay [3] it was above 25 µM; in assay [4] it was below 3 µM; in assay [5], below 3 µM.
For `Cc1cc(C(=O)NC(Cc2ccccc2)C(=O)C(=O)NC2CC2)n(-c2ncccn2)n1` (stereo not drawn) [Compound 455, N-(4-(cyclopropylamino)-3,4-dioxo-1-phenylbutan-2-yl)-3-methyl-1-(pyrimidin-2-yl)-1H-pyrazole-5-carboxamide], the IC50 was above 25 µM in assay [1] (setting [6]); above 10 µM in assay [2]; below 10 µM in assay [3]; 3 to 10 µM in assay [4]; below 3 µM in assay [5].
Taken in the same sequence, the figures for `Cn1cc(C(=O)NC(C=O)Cc2ccccc2)c(-c2ccccc2F)n1` (stereo not drawn) [Compound 520, 3-(2-Fluorophenyl)-1-methyl-N-(1-oxo-3-phenylpropan-2-yl)-1H-pyrazole-4-carboxamide] were above 25 µM, below 3 µM, 10 to 25 µM, below 3 µM and below 3 µM.
Turning to `Cc1ccccc1-c1nn(C)cc1C(=O)N[C@@H](Cc1ccccc1)C(=O)C(N)=O` [Compound 171, (S)—N-(4-amino-3,4-dioxo-1-phenylbutan-2-yl)-1-methyl-3-(o-tolyl)-1H-pyrazole-4-carboxamide], the IC50 in assay [1] (setting [7]) is above 25 µM; in assay [2] (Column C), below 3 µM; in assay [3] (Column E), 10 to 25 µM; in assay [4] (Column A) it was below 3 µM; in assay [5] (Column B), 3 to 10 µM.
Turning to `Cn1cc(C(=O)NC(Cc2ccccc2)C(=O)C(N)=O)c(-c2ccc3c(c2)OC(F)(F)O3)n1` (stereo not drawn) [Compound 548, N-(4-amino-3,4-dioxo-1-phenylbutan-2-yl)-3-(2,2-difluorobenzo[d][1,3]dioxol-5-yl)-1-methyl-1H-pyrazole-4-carboxamide], the IC50 was above 25 µM in assay [1] (setting [6]); below 3 µM in assay [2]; above 25 µM in assay [3]; below 3 µM in assay [4]; below 3 µM in assay [5].
Turning to `Cc1cc(C(=O)NC(Cc2ccccc2)C(=O)C(N)=O)n(-c2ccc(Oc3ccccc3)cc2)n1` (stereo not drawn) [Compound 439, N-(4-Amino-3,4-dioxo-1-phenylbutan-2-yl)-3-methyl-1-(4-phenoxyphenyl)-1H-pyrazole-5-carboxamide], the IC50 in assay [1] (setting [6]) is below 10 µM; in assay [2] it was below 3 µM; in assay [3], above 25 µM; in assay [4] it was below 3 µM; in assay [5], below 3 µM.
Turning to `Cc1cc(C(=O)N[C@@H](Cc2ccccc2)C(=O)C(N)=O)n(-c2cccc(-c3ccccc3C)c2)n1` [Compound 81, (S)—N-(4-amino-3,4-dioxo-1-phenylbutan-2-yl)-3-methyl-1-(2′-methyl-[1,1′-biphenyl]-3-yl)-1H-pyrazole-5-carboxamide], the IC50 is below 10 µM in assay [1] (setting [7]); below 3 µM in assay [2] (Column C); 10 to 25 µM in assay [3] (Column E); below 3 µM in assay [4] (Column A); below 3 µM in assay [5] (Column B).
Turning to `Cn1cc(C(=O)NC(Cc2ccccc2)C(=O)C(N)=O)c(-c2cccc(F)c2C(F)(F)F)n1` (stereo not drawn) [Compound 512, N-(4-amino-3,4-dioxo-1-phenylbutan-2-yl)-3-(3-fluoro-2-(trifluoromethyl)phenyl)-1-methyl-1H-pyrazole-4-carboxamide], the IC50 in assay [1] (setting [6]) was above 25 µM; in assay [2], 3 to 10 µM; in assay [3], below 10 µM; in assay [4] it was 3 to 10 µM; in assay [5], 3 to 10 µM.
`Cc1nc(-c2ccc(F)cc2)c(C(=O)N[C@@H](Cc2ccccc2)C(=O)C(N)=O)o1` [Compound 248, (S)—N-(4-amino-3,4-dioxo-1-phenylbutan-2-yl)-4-(4-fluorophenyl)-2-methyloxazole-5-carboxamide]: the IC50 in assay [1] (setting [7]) was below 10 µM; in assay [2] (Column C) it was below 3 µM; in assay [3] (Column E), below 10 µM; in assay [4] (Column A) it was below 3 µM; in assay [5] (Column B) it was below 3 µM.
